Results published in patent publication US5494820A, “Streptomyces braegensis strain and its cultivation in a process for producing C9 -desoxo-FK-520” (Pfizer Inc., priority 1994, dated 1996).

Legend:
human FK-binding protein = experiment: Inhibition of rotamase activity of FK-binding protein; assay type: biochemical
mouse T lymphocytes = experiment: Immunosuppressive activity (proliferation of T lymphocytes stimulated with ionomycin plus PMA, tritiated thymidine uptake); assay type: cell-based, mouse (C57BI/6); settings: general statement; no value given
Experimental: A positive sample in this assay will inhibit-T-cell proliferation, as indicated by reduced tritiated thymidine uptake.
Spleens from C57BI/6 mice are taken under sterile conditions and gently dissociated in ice-cold RPMI 1640 (trademark) culture medium (GIBCO (trademark)) supplemented with 10% heat-inactivated fetal calf serum (GIBCO (trademark)). Cells are pelleted by centrifugation at 1500 rpm for 8 minutes. Contaminating red cells are removed by treating the pellet with ammonium chloride lysing buffer (GIBCO (trademark)) for 2 minutes at 4° C. Cold medium is added and cells are again centrifuged at 1500 rpm for 8 minutes. […]
Purified T lymphocytes are resuspended at 10^6 cells/ml in complete culture medium composed of RPMI 1640 (trademark) medium with 10% heat-inactivated fetal calf serum, […] glutamine, 1 mM sodium pyruvate, 20 µm 2-mercaptoethanol and 50 μg/ml gentamicin. […] The proliferation of T lymphocytes is assessed by measurement of tritiated […] incorporation. […] Radioactivity of filter discs corresponding to individual wells is measured by standard liquid scintillation counting method (Beta plate counter). Mean counts per minute of replicate wells are calculated and the results expressed as percent inhibition of tritiated thymidine uptake (proliferation) as follows: [formula]

[1] = test system: pathogenic filamentus fungal organisms; experiment: Antimicrobial activity (general statement)

CCC1C=C(C)CC(C)CC(OC)C2OC(O)(CC(=O)N3CCCCC3C(=O)OC(C(C)=CC3CCC(O)C(OC)C3)C(C)C(O)CC1=O)C(C)CC2OC (stereo not drawn) [compound of the formula I, C9 -desoxo-FK-520]
inhibition of the rotamase activity of human FK-binding protein (human FK-binding protein): inhibits the rotamase activity of human FK-binding protein
immunosuppressive activity (mouse T lymphocytes): has immunosuppressive activity
antimicrobial activity [1]: has antimicrobial activity
